From PMC7143967, “Extensive Therapeutic Drug Monitoring of Colistin in Critically Ill Patients Reveals Undetected Risks” (Microorganisms, 2020)
Bridge positions count the residues as written; N and C are the ends. Square brackets hold non-standard residues; d marks the D form. Peptide text beside a SMILES is read from it. * marks the point of attachment. X1 = CC[C@H](C)CCCCC(=O)*; Dab = NCC[C@H](N)C(=O)O

Assays:
[1] = cited from earlier work; for elimination by prolonged intermittent RRT: ref Schmidt et al. [24]
Source text: Colistin was isolated from Bacillus polymyxa subsp. colistinus and consists of a cyclic heptapeptide and a tripeptide side chain acetylated at the N-terminus by a fatty acid moiety. Earlier commercially available Colistin consisted of a mixture of several chemically related subcomponents, including the two major components Colistin A and Colistin B, with a known, concentration-dependent (nephro-, neuro-, oto-) toxicity. […] Following par ... || While CMS is excreted primarily via the kidneys, Colistin elimination pathways remain unclear. […] We were able to calculate elimination half-life for Colistin in 6 out of 8 patients. In our cohort, elimination half-time was greatly extended to a mean of 22.0 h (Figure 2A). […] Subsequently CRRT became necessary due to sustained renal failu ...

clinical = assay type: in vivo, human (critically ill ICU patients); conditions: for t1/2 of Colistin: first-order fit
Experimental: (§1) Blood samples were immediately centrifuged and refrigerated.
While CMS is excreted primarily via the kidneys, Colistin elimination pathways remain unclear. […] We were able to calculate elimination half-life for Colistin in 6 out of 8 patients. In our cohort, elimination half-time was greatly extended to a mean of 22.0 h (Figure 2A). The individual half-life kinetics, including details on curve fitting, are provided in the Supplementary Materials (Supplementary Materials “Elimination half times of Colistin” Figures S1–S6). Individual elimination kinetics followed a first-order kinetic. In one patient (Patient 2), we established CRRT in the midst of the elimination time course. This allowed us to forward project kinetics without CRRT and backwards interpolate kinetics with CRRT. […] The amount of available CMS relevantly impacts upon Colistin levels, since CMS acts as a pro-drug. Thus, elimination of CMS is key to reduce Colistin plasma levels whereas CMS accumulation is the source for Colistin build up. CMS elimination can be rapidly affected by changes of renal function and distribution volume. CMS trough levels might indicate potential accumulation of CMS and subsequent accumulation of Colistin. This is of potential relevance when renal CMS elimination might be impaired.
Extensive Therapeutic Drug Monitoring Of
Supplemental material 1 – elimination half times of Colistin
Figure S1: plasma levels of Colistin after cessation of CMS administration. (A) linear
scaling of colistin plasma levels in [mg/L]; fit of an 1st decay elimination curve, y =
1,5111e-0,029x, R2= 0.97, p<0.001; (B) linear scaling colistin plasma levels in [mg/L] after
(also on this page, place not known: 1 st Colistin [mg/L] ln (Colistin [mg/L]) time [h] time [h] (A) (B))
(1 picture or pasted object on this page, not shown here)

[2] = Therapeutic drug monitoring of CMS and Colistin plasma levels by HPLC-MS/MS
Experimental: Eight critically ill patients, some of them under renal replacement therapy (continuous venovenous hemodialysis (CVVHD), intermittent HD (IHD)), infected with gram negative MDR pathogens were treated with CMS. Daily measurements of serum creatinine levels and estimation of glomerular filtration rate using the CKD-EPI Creatinine (eGFR CKD-EPI) equation [16] were used to monitor renal function. Samples were collected multiple times daily prior to/after every dose of CMS for trough/peak level determination of CMS and Colistin. After termination of the Colistin treatment course, samples were derived from the individual patient, to ensure complete and timely removal of Colistin. Blood samples were immediately centrifuged and refrigerated. The plasma was frozen and kept at −20 °C until analysis. After analysis samples were kept at −80 °C for long term storage.
We aimed for target Colistin serum levels of >2 mg/L in patients suffering from A. baumannii infection alone, or >4 mg/L in patients with singular Pseudomonas infections or combined infections. Dosing was done with or without a loading dose of 6–9 million international units (IU) Colistin and subsequent doses of either 3 × 2 million IU/day, 3 × 3 million IU/day, 3 × 4 million IU or 2 × 4.5 million IU, as indicated.
A total of 50 μL of plasma samples, calibrators and controls were precipitated with 200 μL of ice cold isopropanol containing 0.5 μg/mL polymyxin B as internal standard and 0.02% TFA. After 10 min at −20 °C, centrifuging 5 min with 20,000 g at 4 °C, 100 μL of the supernatant was diluted with 400 μL of the appropriate solvent (water or 30% DMSO in water respectively) and put into the auto sampler at 4 °C. LC-MS/MS system: Dionex UltiMate 3000 XRS autosampler, XRS quaternary UHPLC pump, RS Column compartment. Column used: Aeris Peptide 1.7 μm XB-C18 2.1 × 100 mm (Phenomenex), 40 °C. Mobile phases: Gradient starting with 19% lcms-grade acetonitrile (Baker) and 0.05% TFA (Sigma) in water (Milli-Q) to 40% within 1.6 min at a flow rate of 500 μL/min. Mass spectrometer: TSQ-Vantage triple quad mass spectrometer (Thermo Fisher Scientific, San Jose, CA, USA), HESI-source, positive electrospray ionization mode, settings: ionization voltage 3500 V, vaporizer temperature 500 °C, sheath gas flow 40 (arb), auxiliary gas flow 15 (arb), capillary temperature 200 °C and declustering voltage 10 V. For multiple reaction monitoring (MRM), argon was used as collision gas at a pressure of 1.1 × 10^−3 Torr. Doubly charged parent ions of Colistins (578.5/100.9, 585.4/100.9) and polymyxin B (602.4/100.9) were used for fragmentation and the product ions and collision energies have been optimized for best intensities. A detailed procedure protocol including description of standardization, sample preparation, sample stability etc., is available upon request.

[3] = system: carbapenem resistant A. baumannii (CRAB); experiment: Clinical/microbiological outcome of CMS/Colistin treatment; assay type: in vivo, human (critically ill ICU patients)
Experimental: Microbiology testing was performed by the university’s Department of Microbiology. Samples included regular swab testing for screening purposes (nasal, inguinal, anal, tracheal) and specific testing of blood cultures, wound samples for detection of tissue infection, bronchoalveolar lavage (BAL) fluid and urine.

[4] = design: species or system human (critically ill ICU patients); conditions: in vivo
Source text: as §1

For `CC[C@H](C)CCCCC(=O)N[C@@H](CCN)C(=O)N[C@H](C(=O)N[C@@H](CCN)C(=O)N[C@H]1CCNC(=O)[C@H]([C@@H](C)O)NC(=O)[C@H](CCN)NC(=O)[C@H](CCN)NC(=O)[C@H](CC(C)C)NC(=O)[C@@H](CC(C)C)NC(=O)[C@H](CCN)NC1=O)[C@@H](C)O` [Colistin] (X1-[Dab]T[Dab][Dab][Dab][dL]L[Dab][Dab]T; lactam 4-C), the “elimination by prolonged intermittent RRT” value [1] is listed as “up to 50%”, the “t1/2 of Colistin” value (clinical; Patient 1, eGFR 119 mL/min/1.73m^2, RRT none, R2 = 0.97) is listed as 23.6 h and the “t1/2 of Colistin” value (clinical; Patient 2, eGFR 27 mL/min/1.73m^2, RRT none, R2 = 0.99) is listed as 23.43 h. The “t1/2 of Colistin” value (clinical; Patient 4, eGFR 58 mL/min/1.73m^2, RRT CVVHDF, R2 = 0.996) was 19.5 h, the “t1/2 of Colistin” value (clinical; Patient 5, eGFR 59 mL/min/1.73m^2, RRT IHD, R2 = 0.98) was 16.5 h and the “t1/2 of Colistin” value (clinical; Patient 6, eGFR 99 mL/min/1.73m^2, RRT CVVHDF, R2 = 0.91) was 30.9 h. The “t1/2 of Colistin” value (clinical; Patient 8, eGFR 51 mL/min/1.73m^2, RRT IHD, R2 = 0.999) was 17.9 h, the half-life (clinical; human, in vivo, mean of 6 out of 8 patients, plasma after end of CMS treatment, first-order kinetic, read-out: elimination half-time of Colistin, mean (converted)) was 22 h and the “time to Colistin levels >2 mg/L after dose increase” value ([2]; Patient 2, dose increased from 3 × 2 to 3 × 4 million IU) was 48 h. The “time to sufficient Colistin levels” value ([2]; Patient 4, loading dose 9 million IU, then 3 × 3 million IU CMS daily, target 4 mg/L) was “eight”, the “time to target Css,avg of ~4 mg/L after dose increase” value ([2]; Patient 4, under CVVHDF, 3 × 4 million IU per day) was “four” and the “time to Colistin plasma levels between 3–4 mg/L” value ([2]; Patient 6, second treatment cycle, loading dose 9 million IU, then 3 million IU CMS three times a day) was 8 to 16 h. For the same compound, the “time to target Colistin plasma levels” value ([2]; Patient 7, second treatment cycle, loading dose 9 million IU, 4.5 million IU twice daily, CVVHDF) was “three”, the accumulation in plasma ([2]; Patient 8, IHD-adjusted dosing with loading dose of 9 million IU, CMS stopped after 3 days) was “rapid accumulation” and the level at 48 h ([2]; human, in vivo) was > 2000 ng/mL. The level at 96 h ([2]; human, in vivo) was ~4000 ng/mL, the level at 720 h ([2]; human, in vivo) was < 2000 ng/mL and the “mean Colistin peak level” value ([2]; plasma, sampled 30 min after CMS injection, all patients pooled, mean (±SD), n = 383, HPLC-MS/MS, unit not given) was 3.5 (±1.3, n = 383). For the same compound, the “mean Colistin trough level” value ([2]; plasma, sampled immediately prior to CMS injection, all patients pooled, mean (±SD), n = 386, HPLC-MS/MS, unit not given) was 3.45 (±1.3, n = 386), the result of treatment ([3]; Patient 1, CRAB wound infection, 3 × 3 million IU CMS, 7 days, colonization persisted) was “eradication of the CRAB wound infection was achieved” and the result of treatment ([3]; Patient 2, CRAB bloodstream, wound and pulmonary infection, colonization and pulmonary infection remained) was “cured the bloodstream infection”. For the same compound, the result of treatment ([3]; Patient 6, first treatment cycle, bloodstream and pulmonary CRAB infection) was “bloodstream infection was cured but colonization persisted”.
For Colistin methanosulfate [CMS], the “portion of CMS undergoing renal excretion” value [1] is listed as “about two thirds”, the “elimination by prolonged intermittent RRT” value [1] is listed as “up to 50%” and the mean CMS trough level ([2]; in vivo) is listed as 1.6 mg/L. The “mean CMS peak level” value ([2]; plasma, sampled 30 min after CMS injection, all patients pooled, mean (±SD), n = 381, HPLC-MS/MS, unit not given) was 8.7 (±4.1, n = 381), the result of treatment ([3]; Patient 3, CRAB bloodstream and wound infection, after dose increase to 3 × 4 million IU) was “eradication of both bloodstream and wound infection” and the result of treatment ([3]; Patient 4, in combination with surgical focus eradication, MDR Pseudomonas infection and colonization persisted) was “the CRAB infection was eliminated”. For the same compound, the result of treatment ([3]; Patient 5, 3 × 4 million IU, colonization with CRAB persisted) was “successfully eradicated CRAB from the bloodstream and from pulmonary samples”, the result of treatment ([3]; Patient 6, second treatment cycle, recurrent CRAB bloodstream infection, blood stream samples) was “eradication of CRAB within 3 days of treatment” and the result of treatment ([3]; Patient 7, first treatment cycle, 6 days of CMS) was “successful eradication of CRAB from wound samples”. For the same compound, the result of treatment ([3]; Patient 7, second treatment cycle, 4.5 million IU twice daily, resistant colonization remained) was “the bloodstream infection was successfully eradicated” and the “renal function (eGFR) under treatment” value [4] was “gradual decline of renal function”.
